Source: patent US20240358663A1, “COMPOSITIONS AND METHODS FOR THE TREATMENT OF PULMONARY ARTERIAL HYPERTENSION” (The Regents of the University of Michigan, priority 2016, published 2024)
Entries after “also recorded” stand apart in the source; their conditions may differ.

Test system: CD39^+/+ and CD39^−/− mice exposed to hypoxia
Assay: Ectonucleotidase reconstitution and P2X1 receptor blocking in murine chronic hypoxia model of pulmonary hypertension
Type: in vivo, mouse
Conditions: for development of pulmonary hypertension (PH): continuous infusion during four weeks of hypoxia, CD39^+/+ and CD39^−/− mice; for pulmonary arterial pressures: continuous administration
From the text: Seven-week-old CD39^+/+ and CD39^−/− mice were maintained at 10% oxygen (normobaric) for four weeks using a purpose-built, normobaric hypoxia chamber with automated oxygen-regulating capability. Circulating air was scavenged using charcoal and soda lime (Sigma-Aldrich, St. Louis, MO). Temperature and humidity were monitored, and the latter maintained within normal limits using Dririte (Sigma-Aldrich, St. Louis, MO). Normoxic control mice were maintained in the same room at 21% oxygen, which was verified by a continuous oxygen sensor (BioSpherix, Lacona, NY). All animals were given free access to food and water, and were maintained on a 12-hour dark/light cycle.
Mice were anesthetized using 2% isoflurane. A tracheostomy was performed, and animals were ventilated using 21% or 10% oxygen administered thorough the ventilator circuit. Optimal ventilator settings were confirmed using arterial blood gas measurements. After a median sternotomy was performed, hemodynamic measurements were made using a 1.2F solid state pressure catheter (Scisense Transonic, London, ON) inserted through the right ventricular (RV) free wall into the RV cavity and advanced into the pulmonary artery (PA). Placement was verified using the pressure waveform. Data including the right ventricular systolic pressure (RVSP) and mean PA (mPA) pressures were collected and analyzed using LabScribe2 (iWorx, Dover, NH). Continuous EKG monitoring was performed using the MouseMonitor (Indus Instruments, Webster, TX).
Alzet osmotic pumps (DURECT, Cupertino, CA) were used to deliver either 15 units of
apyrase (A6410, Sigma-Aldrich, St. Louis, MO), 25 mM of NF279 (Tocris Bioscience/Bio-Techne, Minneapolis, MN) or sterile 0.9% sodium chloride over a four-week period at a rate of 0.11 μl/hr.
Based upon findings of increased intravascular ATP and ADP, significant up-regulation of the P2X1 receptor, and severe pulmonary hypertension in hypoxic CD39-mice, two sets of rescue experiments were designed aimed at reversing the PH phenotype. The first rescue experiment involved the reconstitution of intravascular ectonucleotidase activity. Soluble potato tuber apyrase has known ATPase and ADPase activity, and has been used in prior studies involving CD39^−/− mice (ref. 24, 44; incorporated by reference in their entireties). Sequence homology of this apyrase is similar to human and murine CD39 (ref. 19; incorporated by reference in its entirety). […] The second rescue experiment involved the continuous infusion of NF279 (8,8′-[Carbonylbis (imino-4,1-phenylenecarbonylimino-4,1-phenylenecarbonylimino)]bis-1,3,5-naphthalenetrisulfonic acid hexasodium salt):
a sensitive and specific P2X1 antagonist, during four weeks of hypoxia. […] Pulmonary Vessels from Patients with IPAH have Increased P2X1 Receptors

Molecule	development of pulmonary hypertension (PH) (FIG. 5c)	pulmonary arterial pressures (hypoxic CD39^−/− mice)	right ventricular systolic pressure (RVSP) (continuous subcutaneous administration during four weeks of hypoxia (10% oxygen), compared to control mice that received continuous saline infusions, FIG. 5c)	RVSP relative to levels found in normoxic CD39^+/+ mice (hypoxic CD39^−/− mice, four weeks of continuous administration, FIG. 5c)
O=C(Nc1ccc(C(=O)Nc2ccc(C(=O)Nc3ccc(S(=O)(=O)[O-])c4cc(S(=O)(=O)[O-])cc(S(=O)(=O)[O-])c34)cc2)cc1)Nc1ccc(C(=O)Nc2ccc(C(=O)Nc3ccc(S(=O)(=O)[O-])c4cc(S(=O)(=O)[O-])cc(S(=O)(=O)[O-])c34)cc2)cc1.[Na+].[Na+].[Na+].[Na+].[Na+].[Na+] [NF279, 8,8′-[Carbonylbis (imino-4,1-phenylenecarbonylimino-4,1-phenylenecarbonylimino)]bis-1,3,5-naphthalenetrisulfonic acid hexasodium salt, reference compound]	prevented the development of PH in all groups; also recorded: protected both CD39^+/+ and CD39-4-mice from the development of hypoxic pulmonary hypertension	lowered pulmonary arterial pressures even further		
apyrase	provided partial protection against the development of pulmonary hypertension	decreased pulmonary arterial pressures in hypoxic CD39-mice to levels found in hypoxic CD39^+/+ controls	significantly decreased the RVSP	did not decrease the RVSP in hypoxic CD39^−/− mice to levels found in normoxic CD39^+/+ mice
